Measurements from EPA's ToxValDB 9.5.

Tested on: Rattus norvegicus
Settings: for NOAEL / LOAEL: inhalation; for LOEL / NOEL: oral, gavage
[1] = reproduction developmental, duration: 28 days, M, Wistar, generation: P0, P0: Whole Body: Body Weight Change
[2] = short-term, duration: 28 days, F, Wistar, Kidney: Creatinine (CREAT)
[3] = short-term, duration: 28 days, F, Wistar, Kidney: Creatinine (CREAT) + Multi-Organ: Gamma-Glutamyl Transferase (GGT)
[4] = short-term, duration: 28 days, F, Wistar, Kidney: Fluoride, Total Urinary Excretion + Kidney: Fluoride, Urine + Kidney: Urinary Fluoride/Creatinine Ratio + Liver: Liver Weight, …
[5] = short-term, duration: 28 days, F, Wistar, Liver: Liver Weight, Absolute + Liver: Liver Weight, Relative + Lung: Lung Histopathology + Lung: Lung Weight, Absolute + Lung: Lung Weight…
[6] = short-term, duration: 28 days, F, Wistar, Liver: Total Bilirubin (TBILI)
[7] = short-term, duration: 28 days, M, Wistar, Kidney: Creatinine (CREAT) + Whole Body: Body Weight Change + Whole Body: Food Conversion Efficiency + Whole Body: Food Intake
[8] = short-term, duration: 28 days, M, Wistar, Kidney: Fluoride, Total Urinary Excretion + Kidney: Fluoride, Urine + Kidney: Urinary Fluoride/Creatinine Ratio + Lung: Lung Histopathology…
[9] = short-term, duration: 28 days, M, Wistar, Liver: Albumin (A) + Liver: Triglycerides (TRIG) + Multi-Organ: Cholesterol, Total + Multi-organ: Glucose (GLU)
[10] = short-term, duration: 28 days, M, Wistar, Liver: Albumin (A) + Multi-Organ: Glucose (GLU) + Renal: Fluoride, Total Urinary Excretion + Renal: Fluoride, Urine + Renal: Fluoride/…
[11] = short-term, duration: 28 days, M, Wistar, Lung: Lung Histopathology + Lung: Lung Weight, Absolute + Lung: Lung Weight, Relative + Spleen: Spleen Weight, Absolute + Spleen: Spleen …
[12] = short-term, duration: 28 days, M, Wistar, Whole Body: Body Weight Change
[13] = subchronic, duration: 91 days, F, Wistar, Blood: Albumin/Globulin (A/G) Ratio + Liver: Liver Weight, Relative + Multi-Organ: Acyl-CoA Oxidase Activity
[14] = subchronic, duration: 91 days, F, Wistar, Kidney: Kidney Weight, Relative + Liver: Albumin (A)
[15] = subchronic, duration: 91 days, M, Wistar, Blood: Mean Corpuscular Hemoglobin (MCH) + Liver: Albumin (A) + Liver: Alkaline Phosphatase (ALP) + Liver: Cholesterol (CHOL), Total + Liver…
[16] = subchronic, duration: 91 days, M, Wistar, Blood: Mean Corpuscular Hemoglobin (MCH), Recovery + Blood: Mean Corpuscular Volume (MCV) + Blood: Platelet Count (PLT), Recovery + Blood: …
[17] = chronic, duration: 92 days, F, Wistar, kidney: relative kidney weight
[18] = chronic, duration: 92 days, M, Wistar, liver: relative liver weight
[19] = short-term, duration: 28 days, F, Wistar, kidney: absolute kidney weight + kidney: relative kidney weight + liver: absolute liver weight + liver: relative liver weight
[20] = short-term, duration: 28 days, M, Wistar, adrenal gland: absolute adrenal gland weight + adrenal gland: relative adrenal gland weight + testis: relative testis weight + thymus: …
[21] = short-term, duration: 28 days, M, Wistar, liver: relative liver weight + spleen: absolute spleen weight

O=C(C(F)(F)C(F)(F)F)C(F)(C(F)(F)F)C(F)(F)F [Perfluoro-2-methyl-3-pentanone]
51700 mg/m3: NOAEL [5] | LOAEL [6] | LOAEL [10] | NOAEL [11]
259000 mg/m3: NOAEL (short-term, duration: 28 days, F, Wistar, Adrenal: Adrenal Gland Histopathology + Bladder: Urinary Bladder Histopathology + Blood: Albumin/Globulin (A/G) Ratio + Blood: Hematocrit (…) | LOAEL [2] | NOAEL (short-term, duration: 28 days, M, Wistar, Adrenal: Adrenal Gland Histopathology + Bladder: Urinary Bladder Histopathology + Blood: Hematocrit (HCT) + Blood: Hemoglobin (HGB) + Blood…) | LOAEL [7]
125000 mg/m3: NOAEL [3] | LOAEL [4] | LOAEL [8] | NOAEL [12]
129000 mg/m3: NOAEL [2] | LOAEL [5] | NOAEL [7] | LOAEL [11]
12400 mg/m3: LOAEL (short-term, duration: 28 days, F, Wistar, Liver: Peroxisome Induction + Liver: Phospholipid + Spleen: Spleen Weight, Absolute + Spleen: Spleen Weight, Relative) | NOAEL [9] | LOAEL (short-term, duration: 28 days, M, Wistar, Liver: Liver Histopathology + Liver: Liver Weight, Absolute + Liver: Liver Weight, Relative + Liver: Peroxisome Induction)
49600 mg/m3: NOAEL [4] | NOAEL [8] | LOAEL [9]
245000 mg/m3: NOAEL (short-term, duration: 28 days, F, Wistar, Blood: Albumin/Globulin (A/G) Ratio + Blood: Hematology, Unspecified + Liver: Albumin (A) + Liver: Liver Histopathology + Multi-Organ: …) | LOAEL [3] | NOAEL (short-term, duration: 28 days, M, Wistar, Blood: Albumin/Globulin (A/G) Ratio + Blood: Hematology, Unspecified + Kidney: Creatinine (CREAT) + Liver: Phospholipid + Multi-Organ: Gamma…) | LOAEL [12]
3880 mg/m3: NOAEL [1] | NOAEL [14] | LOAEL (subchronic, duration: 91 days, F, Wistar, Spleen: Spleen Weight, Absolute) | LOAEL (subchronic, duration: 91 days, M, Wistar, Blood: Albumin/Globulin (A/G) Ratio + Kidney: Kidney Weight, Absolute + Kidney: Kidney Weight, Relative + Liver: Liver Weight, Absolute + …) | NOAEL [15]
12900 mg/m3: LOAEL [1] | LOAEL (short-term, duration: 28 days, F, Wistar, Liver: Peroxisome Induction + Liver: Phospholipid + Liver: Triglycerides (TRIG) + Spleen: Spleen Weight, Absolute + Spleen: Spleen Weight, …) | NOAEL [6] | LOAEL (short-term, duration: 28 days, M, Wistar, Blood: Albumin/Globulin (A/G) Ratio + Liver: Liver Histopathology + Liver: Liver Weight, Absolute + Liver: Liver Weight, Relative + Liver: …) | NOAEL [10] | NOAEL [13] | LOAEL [14] | LOAEL [15] | NOAEL [16]
38800 mg/m3: NOAEL (developmental, duration: 13 days, M/F, Sprague-Dawley, generation: F1, F1: Uterus: Resorptions, Early + F1: Uterus: Resorptions, Late + F1: Whole Body: Fetal Alterations, Total) | NOAEL (reproduction developmental, duration: 4 days, F, Wistar, generation: F1, F1: Whole Body: Body Weight Change + F1: Whole Body: Body Weight, Absolute + F1: Whole Body: Clinical Observations + F1: Whole Body: Live …) | NOAEL (reproduction developmental, duration: 4 days, F, Wistar, generation: P0, P0: Uterus: Estrous Cycle + P0: Whole Body: Body Weight Change + P0: Whole Body: Body Weight, Absolute + P0: Whole Body: Clinical …) | NOAEL (reproduction developmental, duration: 13 days, F, Sprague-Dawley, generation: P0, P0: Ovary: Corpora Lutea + P0: Ovary: Ovary, Necropsy + P0: Placenta: Normal Placenta + P0: Uterus: Implantation + P0: Uterus: Uterine …) | NOAEL (reproduction developmental, duration: 28 days, M, Wistar, generation: P0, P0: Epididymis: Epididymis Weight, Absolute + P0: Testis: Testis Weight, Absolute + P0: Whole Body: Body Weight, Absolute + P0: Whole Body: …) | LOAEL [13] | NOAEL (subchronic, duration: 91 days, F, Wistar, Blood: Albumin/Globulin (A/G) Ratio, Recovery + Blood: Mean Corpuscular Hemoglobin (MCH) + Blood: Mean Corpuscular Volume (MCV) + Blood: Red…) | NOAEL (subchronic, duration: 91 days, M, Wistar, Blood: Albumin/Globulin (A/G) Ratio, Recovery + Brain: Brain Weight, Absolute + Brain: Brain Weight, Relative + Eye: Ophthalmology, …) | LOAEL [16]

Cc1ccc(S(=O)(=O)NC(=O)Nc2cccc(OS(=O)(=O)c3ccc(C)cc3)c2)cc1 [Pergafast 201]
50 mg/kg-day: NOEL [17] | NOEL [18]
150 mg/kg-day: LOEL [17] | LOEL [18] | LOEL [19] | NOEL [20] | LOEL [21]
750 mg/kg-day: LOEL [20]
12.5 mg/kg-day: LOEL (chronic, duration: 92 days, F, Wistar, liver: absolute liver weight + liver: relative liver weight)
30 mg/kg-day: NOEL [19] | LOEL (short-term, duration: 28 days, M, Wistar, brain: relative brain weight + liver: absolute liver weight) | NOEL [21]
